The experiment has as its target T1, recombinant GBA3 (Homo sapiens, UniProt Q9H227).
T1 construct: purchased R&D Systems 5969-GH-10
T1 sequence (Q9H227 1-469): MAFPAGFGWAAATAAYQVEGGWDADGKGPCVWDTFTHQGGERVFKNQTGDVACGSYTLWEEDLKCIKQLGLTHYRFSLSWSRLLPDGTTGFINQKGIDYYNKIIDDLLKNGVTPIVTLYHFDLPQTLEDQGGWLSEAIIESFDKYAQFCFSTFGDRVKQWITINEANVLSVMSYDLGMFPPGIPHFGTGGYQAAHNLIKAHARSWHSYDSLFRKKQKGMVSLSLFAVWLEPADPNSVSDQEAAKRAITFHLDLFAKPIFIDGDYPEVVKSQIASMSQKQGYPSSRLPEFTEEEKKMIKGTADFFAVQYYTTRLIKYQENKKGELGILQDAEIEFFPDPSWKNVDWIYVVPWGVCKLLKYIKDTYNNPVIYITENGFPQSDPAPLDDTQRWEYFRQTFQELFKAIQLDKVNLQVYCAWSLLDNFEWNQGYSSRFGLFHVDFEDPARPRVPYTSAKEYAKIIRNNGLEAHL
In words: cell-free 4MUG assay with recombinant GBA3. The settings on record: for less potent against GBA3 than GBA1: selectivity GBA1 over GBA3. In kind it is biochemical. As for the experimental part: After incubation, 100 μl of assay buffer was added to the plate. The assay buffer was composed of 0.1 M citric acid and 0.2 M sodium phosphate dibasic adjusted to pH = 5.4 unless stated otherwise (McIlvaine Buffer). […] For IC50 and EC50 experiments using compounds an assay buffer of pH 5.4 was used.
The substrate, 4-methylumbelliferyl β-D-glucopyranoside (4MUG, Sigma, M3633) was then added to the plate to a final concentration of 1.7 mM (25 μl). 4MUG was freshly solubilized in water at 37°C prior to each experiment. The recombinant protein, compound, assay buffer, and substrate were incubated at 37°C for 30 minutes.
In experiments directly comparing enzymatic activities of GBA1, GBA2 and GBA3 (S1 Fig., S2 Fig. c, d) the following conditions were used. […] A 10-fold intermediate solution of compound serial dilution was prepared in an assay buffer; half log dilutions were used. […] 2 mM solution of 4MUG was prepared in an assay buffer. To start the reaction, 4.5 μl/well of this solution was added to the enzyme plate and was incubated for 30 minutes at 37°C. To stop the reaction, a 1M glycine solution, adjusted to pH = 10 using 1M NaOH was used. […] To test the effect of sodium taurocholate (Sigma, T4009), the assay was performed using the same procedure described in this paragraph. The assay buffer contained either 0mM (same as above), 3 mM, 7 mM or 20 mM Sodium Taurocholate.

Molecules are shown by their SMILES. Entries after “also recorded” stand apart in the source; their conditions may differ.

As to `O[C@H]1[C@H](O)[C@@H](O)[C@@H]2O[C@@H]2[C@@H]1O` [CBE], where the note is “dose response, within the concentrations tested”, the “effect on activity of recombinant GBA3” value is “did not inhibit; also recorded: does not alter activity”.
For `OC[C@H]1CNC[C@@H](O)[C@@H]1O` [Isofagomine, isofagomine], the “less potent against GBA3 than GBA1” value was above 100 fold. Under “1 μM”, the “effect on GBA3 activity” value is on record as “did not have any substantial effect”. For the same compound, the “less potent against GBA3 than GBA1” value (listed as isofagomine) is on record as at least 100 fold.

The record behind these values is publication PMC4357465, “Tool Compounds Robustly Increase Turnover of an Artificial Substrate by Glucocerebrosidase in Human Brain Lysates” (PLoS ONE, 2015).
